These results are taken from US20210255184A1, “Biosensor Device and Methods” (The New Zealand Institute for Plant and Food Research …, priority 2018, published 2021).

This assay addresses T1, Or22a/Orco (Drosophila melanogaster, UniProt P81909).
T1 construct: his-tag; made in house; host or cells: baculovirus-infected Sf9 cells
T1 sequence (P81909 1-397): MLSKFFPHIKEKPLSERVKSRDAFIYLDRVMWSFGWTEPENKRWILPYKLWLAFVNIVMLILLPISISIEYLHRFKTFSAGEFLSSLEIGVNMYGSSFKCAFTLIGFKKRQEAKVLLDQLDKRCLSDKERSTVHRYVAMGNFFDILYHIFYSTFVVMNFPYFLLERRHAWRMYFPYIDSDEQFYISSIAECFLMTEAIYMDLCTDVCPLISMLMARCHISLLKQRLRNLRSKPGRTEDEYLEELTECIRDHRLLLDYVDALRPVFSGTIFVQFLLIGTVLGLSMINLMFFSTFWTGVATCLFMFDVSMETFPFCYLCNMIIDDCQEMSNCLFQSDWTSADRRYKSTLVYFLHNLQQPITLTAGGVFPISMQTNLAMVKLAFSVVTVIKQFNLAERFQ
T1 sequence (Q9VNB5 1-486 partner): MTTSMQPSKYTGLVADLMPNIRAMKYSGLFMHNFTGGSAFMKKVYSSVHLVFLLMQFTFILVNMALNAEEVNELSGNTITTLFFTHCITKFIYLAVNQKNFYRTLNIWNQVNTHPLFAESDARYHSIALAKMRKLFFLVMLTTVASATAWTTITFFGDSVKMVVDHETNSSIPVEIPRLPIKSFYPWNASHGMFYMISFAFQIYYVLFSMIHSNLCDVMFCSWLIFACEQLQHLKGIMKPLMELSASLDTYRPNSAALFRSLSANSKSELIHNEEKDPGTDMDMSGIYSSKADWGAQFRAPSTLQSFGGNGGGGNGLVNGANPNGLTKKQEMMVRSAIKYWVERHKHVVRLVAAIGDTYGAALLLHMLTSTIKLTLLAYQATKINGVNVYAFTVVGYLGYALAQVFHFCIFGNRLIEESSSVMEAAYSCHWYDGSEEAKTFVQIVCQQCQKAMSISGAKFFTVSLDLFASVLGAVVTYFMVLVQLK
Briefly: EIS sensor, Or22a/Orco liposomes on gold electrode. Type of assay: biochemical. As for the experimental part:
Prior to their use, liposomes were defrosted on ice and then destabilized by incubating with 0.2% CHAPS for 15 min at room temperature. Then 200 μg of purified odorant receptor^28 was added to 1 mg of liposomes and rotated at 10 rpm for 1 h at room temperature. Excess detergent was removed by four additions of 25 mg of Bio-Beads SM-2 (Bio-Rad, USA) and incubation at 4° C. for 30 min, 2 h, overnight and a further 2 h respectively. The Bio-Beads were removed after each incubation period. The OrX or OrX/Orco integrated liposomes were pelleted by centrifugation at 100,000 g for 1 h, and were resuspended in 500 μL of rehydration buffer. Integration of OrXs and Orco into liposomes was assessed by density gradient ultracentrifugation (DGU) using Accudenz (Accurate Chemical & Scientific Corporation, USA). The integrated liposomes were brought to 40% Accudenz by the addition of an equal volume of 80% Accudenz solution, placed at the bottom of an ultra-centrifugation tube, and overlaid with 30% Accudenz solution, and DGU buffer (25 mM HEPES pH 7.5, 100 mM NaCl, 10% glycerol). The sample was then centrifuged at 100,000 g for 4 h at 4° C. Liposomes will float to the top of the gradient after Accudenz DGU due to their low density.
2 mM MHA was prepared by dissolving 1.36 μl of MHA in 5 ml ethanol (AR grade). The cleaned electrodes were immersed into MHA solution and incubated overnight. The next day, all the electrodes were washed with ethanol and deionised water thoroughly in order to remove the unreacted acid. A 2:1 mol:mol ratio of EDC:NHS (100 mM EDC, 50 mM NHS) was prepared in 2 ml PBS (pH=6.5) solution. Then, the electrodes were covered in 100 μl of this solution at 28° C. for an hour to activate the carboxylic (COOH) groups of the MHA.
PBS solution was prepared by immersing one tablet of PBS in 200 ml of milli-Q water (according to manufacturers instructions) and filtered using 0.2-μm syringe filter. The pH of the prepared buffer solution was measured with a pH meter. […]

Each structure is given as a SMILES string.

For the setting “EIS dose response, ligand 1 aM to 100 μM”, `CCCCCC(=O)OC` [methyl hexanoate] had a limit of detection of 0.1 fM. Further, the Sensitivity limit (Table 1, * estimated visually from dose response graph) is ~10^−16 M*. Further, under “Table 3”, the “Detection Range” value is 10^−16-10^−5 M.
